Experimental findings from US4956504A, “Novel spergualin-related compounds and process for producing the same” (Zaidan Hojin Biseibutsu Kagaku Kenkyu Kai, priority 1986, dated 1990) are described below.

In one data set the test system is mice. Put plainly: Acute toxicity: administration amount causing acute death to mice. The class given is in vivo. As for the experimental part: A compound of the present invention was dissolved in a physiological saline solution in various concentrations. Each of the resulting solutions was intraperitoneally administered to one of CDF1 -SLC female mice (one group: two to three mice) in an amount of 0.1 ml per 10 g of body weight. The highest concentration of present compound in solution was 400 mg/10 ml/kg, and starting from this solution of highest concentration, solutions of lower concentrations were prepared each time at a common ratio of 2. The administration amount of present compound with the lowest concentration solution with which at least one mouse died was taken as an administration amount of acute toxicity.
(§1) In Tables and 5, a control compound is included. This compound is such that in the general formula [I], X is [drawing 59] R is --CH2 OH and both of R1 and R2 are --H.

The test system of data set [1] is antibody formation (anti-SRBC plaque-forming cells). Put plainly: Inhibitory activity against antibody formation (anti-SRBC plaque-forming cells in spleen). The class given is in vivo, mouse (CDF1-SLC female). The conditions noted are these: once a day for three consecutive days, minus shows an increase of antibody formation. On the procedure:
(b) Inhibitory activity against antibody formation
Test groups and a control group of CDF1 -SLC female mice (each group: five mice) were intravenously sensitized with 1×10^8 /0.2 ml of sheep red blood cells (SRBC). A compound of the present invention was dissolved in a physiological saline solution in various concentrations. Each of the resulting solutions was administered to one of the test groups once a day for three consecutive days from the next day of the sensitization, in an amount of 0.1 ml/10 g (body weight)/day. The physiological saline solution was administered to the control group.
In the fourth day from the sensitization, all the mice were killed and the number of anti-SRBC plaque-forming cells (PFC) in the spleen cells of each mouse was measured. From this number, the PFC number per 10^6 of spleen cells was calculated. The effect of the present compound was expressed as an inhibition percentage (%) of PFC number of test group as compared with control group. [formula]
as §1

The next data set concerns mouse leukemia L1210. Put plainly: Life prolongation effect to mouse leukemia L1210. The data set is classed as in vivo, mouse (CDF1-SLC female). Conditions: once a day for nine consecutive days, 125 or more is effective, read-out: T/C × 100 (life prolongation percentage); for response vs control in vivo at 0.39 mg/kg: 0.39 mg/kg/day; for response vs control in vivo at 0.78 mg/kg: 0.78 mg/kg/day; for response vs control in vivo at 1.56 mg/kg: 1.56 mg/kg/day; for response vs control in vivo at 3.13 mg/kg: 3.13 mg/kg/day; for response vs control in vivo at 6.25 mg/kg: 6.25 mg/kg/day; for response vs control in vivo at 12.5 mg/kg: 12.50 mg/kg/day; for response vs control in vivo at 25 mg/kg: 25.00 mg/kg/day; for response vs control in vivo at 50 mg/kg: 50.00 mg/kg/day. As for the experimental part: 3. Life prolongation effect of present compound to mouse leukemia cells L1210 and its toxicity
1×10^5 /0.2 ml/mouse of mouse leukemia cells L1210 were intraperitoneally transplanted to test groups and a control group of CDF1 -SLC female mice (each group: four mice). A compound of the present invention was dissolved in a physiological saline solution in various concentrations and each of the resulting solutions was administered to one of the test groups once a day for nine consecutive days from the next day of the transplantation, in an amount of 0.1 ml/10 g (body weight)/day. The physiological saline solution was administered to the control group.
All the mice of the test groups and the control group were observed from the next day of the L1210 transplantation to examine their days of survival, and the average days of survival (T) of each test group and the average days of survival (C) of the control group were calculated. The life prolongation percentage of the present compound was expressed as (T/C)×100.
It is believed that a (T/C)×100 of 125 or more is effective.
as §1

The mark [2] stands for this setting: Administration amount 1.56 mg/kg.
Setting [3] is: Administration amount 6.25 mg/kg.
Setting [4] is: intraperitoneal, single, lowest amount with which at least one mouse died.

SMILES strings stand for the structures. Where a name gives a salt, the structure may show the parent alone.

`N=C(N)Nc1ccc(CCCC(=O)N[C@@H](CO)C(=O)NCCCCNCCCNC(=O)[C@@H](N)c2ccccc2)cc1` [Compound No. 1, 10-{N-[4-(4-GP)butanoyl]-L-Ser}-1-L-PhG-1,5,10-TAD trihydrochloride]: the “Administration amount causing acute death to mice” value with mice (mouse, in vivo, ip) was 100 mg/kg. Also, the “Inhibitory percentage (antibody formation, PFC number vs control group)” value (“Inhibitory percentage” below) in data set [1] (setting [2]) is listed as 87%. In addition, the “Inhibitory percentage” value in data set [1] (setting [3]) stood at 97%. In addition, in the data set with mouse leukemia L1210, the response vs control in vivo at 0.39 mg/kg was found to be 146%, the response vs control in vivo at 0.78 mg/kg turned out to be 195%, the response vs control in vivo at 1.56 mg/kg is 296% and the response vs control in vivo at 3.13 mg/kg worked out at 269%. In addition, in the data set with mouse leukemia L1210, the response vs control in vivo at 6.25 mg/kg stood at 315%, the response vs control in vivo at 12.5 mg/kg is 278%, the response vs control in vivo at 25 mg/kg was found to be 294% and the response vs control in vivo at 50 mg/kg was found to be 327%.

As for `CC(C)C[C@H](N)C(=O)NCCCNCCCCNC(=O)[C@H](CO)NC(=O)CCCc1ccc(NC(=N)N)cc1` [Compound No. 2, 10-{N-[4-(4-GP)butanoyl)-L-Ser}-1-L-], the “Inhibitory percentage” value in data set [1] (setting [2]) worked out at 60%. Also, the “Inhibitory percentage” value in data set [1] (setting [3]) worked out at 92%. Besides, in the data set with mouse leukemia L1210, the response vs control in vivo at 0.39 mg/kg was determined as 136%, the response vs control in vivo at 0.78 mg/kg was 152%, the response vs control in vivo at 1.56 mg/kg turned out to be 244% and the response vs control in vivo at 3.13 mg/kg came to 331%. Also, in the data set with mouse leukemia L1210, the response vs control in vivo at 6.25 mg/kg is 300%, the response vs control in vivo at 12.5 mg/kg was 272%, the response vs control in vivo at 25 mg/kg was determined as 281% and the response vs control in vivo at 50 mg/kg is 53%.

In the case of `CC(C)C[C@@H](N)C(=O)NCCCNCCCCNC(=O)[C@H](CO)NC(=O)CCCc1ccc(NC(=N)N)cc1` [Compound No. 3, 10-{N-[4-(4-GP)butanoyl]-L-Ser}-1-D-Leu-1,5,10-TAD trihydrochloride], in the data set on mice (setting [4]), the “Administration amount causing acute death to mice” value amounted to 100 mg/kg.

As for `N=C(N)Nc1ccc(CCCC(=O)N[C@@H](CO)C(=O)NCCCCNCCCNC(=O)[C@@H](N)Cc2ccccc2)cc1` [Compound No. 5, 10-{N-[4-(4-GP)butanoyl]-L-Ser}-1-L-Phe-1,5,10-TAD trihydrochloride], the “Administration amount causing acute death to mice” value in the data set on mice (mouse, in vivo, ip) is 100 mg/kg. For the same molecule, in the data set with mouse leukemia L1210, the response vs control in vivo at 0.39 mg/kg came to 123%, the response vs control in vivo at 0.78 mg/kg stood at 133%, the response vs control in vivo at 1.56 mg/kg was determined as 146% and the response vs control in vivo at 3.13 mg/kg is 265%. For the same molecule, in the data set on mouse leukemia L1210, the response vs control in vivo at 6.25 mg/kg stood at 290%, the response vs control in vivo at 12.5 mg/kg is 290%, the response vs control in vivo at 25 mg/kg stood at 284% and the response vs control in vivo at 50 mg/kg is 253%.

With `N=C(N)Nc1ccc(CCCC(=O)N[C@@H](CO)C(=O)NCCCCNCCCNC(=O)[C@@H](N)Cc2ccc(O)cc2)cc1` [Compound No. 6, 10-{N-[4-(4-GP)butanoyl]-L-Ser}-1-L-Tyr-1,5,10-TAD trihydrochloride], the “Administration amount causing acute death to mice” value in the data set on mice (mouse, in vivo, ip) is 100 mg/kg. Besides, in the data set on mouse leukemia L1210, the response vs control in vivo at 0.39 mg/kg came to 125%, the response vs control in vivo at 0.78 mg/kg is 158%, the response vs control in vivo at 1.56 mg/kg came out at 201% and the response vs control in vivo at 3.13 mg/kg was 267%. In addition, in the data set on mouse leukemia L1210, the response vs control in vivo at 6.25 mg/kg is 250%, the response vs control in vivo at 12.5 mg/kg is 250%, the response vs control in vivo at 25 mg/kg stood at 270% and the response vs control in vivo at 50 mg/kg came out at 162%.

On to `N=C(N)Nc1ccc(CCCC(=O)N[C@@H](CO)C(=O)NCCCCNCCCNC(=O)[C@@H](N)CC(=O)O)cc1` [Compound No. 7, 10-{N-[4-(4-GP)butanoyl]-L-Ser}-1-L-Asp-1,5,10-TAD trihydrochloride], for which, in the data set with mice (mouse, in vivo, ip), the “Administration amount causing acute death to mice” value is 100 mg/kg. Also, in the data set on mouse leukemia L1210, the response vs control in vivo at 0.39 mg/kg was found to be 96%, the response vs control in vivo at 0.78 mg/kg was determined as 86%, the response vs control in vivo at 1.56 mg/kg is 99% and the response vs control in vivo at 3.13 mg/kg came to 152%. In addition, in the data set on mouse leukemia L1210, the response vs control in vivo at 6.25 mg/kg worked out at 216%, the response vs control in vivo at 12.5 mg/kg turned out to be 265%, the response vs control in vivo at 25 mg/kg was found to be 284% and the response vs control in vivo at 50 mg/kg worked out at 284%.

Consider `C[C@H](N)C(=O)NCCCNCCCCNC(=O)[C@H](CO)NC(=O)CCCc1ccc(NC(=N)N)cc1` [Compound No. 8, 10-{N-[4-(4-GP)butanoyl]-L-Ser}-1-L-Ala-1,5,10-TAD trihydrochloride], for which the response vs control in vivo at 0.2 mg/kg in the data set on mouse leukemia L1210 (0.20 mg/kg/day) came out at 109%. In the data set with mouse leukemia L1210, the response vs control in vivo at 0.39 mg/kg turned out to be 102%, the response vs control in vivo at 0.78 mg/kg is 130%, the response vs control in vivo at 1.56 mg/kg amounted to 164% and the response vs control in vivo at 3.13 mg/kg was found to be 312%. Moreover, in the data set with mouse leukemia L1210, the response vs control in vivo at 6.25 mg/kg is 272%, the response vs control in vivo at 12.5 mg/kg is 290% and the response vs control in vivo at 25 mg/kg was determined as 362%.

Regarding `N=C(N)Nc1ccc(CCCC(=O)N[C@@H](CO)C(=O)NCCCCNCCCNC(=O)[C@@H](N)CO)cc1` [Compound No. 9, 10-{N-[4-(4-GP)butanoyl]-L-Ser}-1-L-Ser-1,5,10-TAD trihydrochloride], in the data set on mice (mouse, in vivo, ip), the “Administration amount causing acute death to mice” value is listed as > 100 mg/kg. For the same molecule, in the data set on mouse leukemia L1210, the response vs control in vivo at 0.78 mg/kg was determined as 118%, the response vs control in vivo at 1.56 mg/kg worked out at 125%, the response vs control in vivo at 3.13 mg/kg amounted to 155% and the response vs control in vivo at 6.25 mg/kg stood at 191%. Besides, in the data set with mouse leukemia L1210, the response vs control in vivo at 12.5 mg/kg amounted to 276%, the response vs control in vivo at 25 mg/kg was 241% and the response vs control in vivo at 50 mg/kg was found to be 250%. Also, the response vs control in vivo at 100 mg/kg in the data set with mouse leukemia L1210 (100.00 mg/kg/day) was determined as 103%.

As for `N=C(N)Nc1ccc(CCCC(=O)N[C@@H](CO)C(=O)NCCCCNCCCNC(=O)[C@@H]2CCCN2)cc1` [Compound No. 10, 10-{N-[4-(4-GP)butanoyl-L-Ser}-1-L-Pro-1,5,10-TAD trihydrochloride], the “Administration amount causing acute death to mice” value with mice (setting [4]) stood at 100 mg/kg.

Turning to `N=C(N)Nc1ccc(CCCC(=O)N[C@@H](CO)C(=O)NCCCCNCCCNC(=O)[C@@H](O)[C@H](N)Cc2ccccc2)cc1` [Compound No. 12, 10-{N-[4-(4-GP)butanoyl]-L-Ser}-1-[(2S, 3R)-AHPA]-1,5,10-TAD trihydrochloride], the “Administration amount causing acute death to mice” value with mice (setting [4]) came out at 100 mg/kg.

As for `N=C(N)Nc1ccc(CCCC(=O)N[C@@H](CO)C(=O)NCCCCN(CCCNC(=O)[C@@H](N)c2ccccc2)C(=O)[C@@H](N)c2ccccc2)cc1` [Compound No. 14, 10-{N-[4-(4-GP)butanoyl]-L-Ser}-1,5-di-L-PhG-1,5,10-TAD trihydrochloride], the “Administration amount causing acute death to mice” value in the data set with mice (mouse, in vivo, ip) amounted to 200 mg/kg. Further, the “Inhibitory percentage” value in data set [1] (setting [2]) is listed as -50%; in data set [1] (setting [3]), -75%.
